pEC50: −log10 of the molar value. Like-named read-outs stand apart in the source and are kept apart here.
Tested on: recombinant human CFTR carrying the premature stop codon (PTC) mutation R1162X
Experiment: CFTR-PTC mutant translation readthrough, Nanoluc tagged CFTR luminescence (R1162X cell line)
Type: cell-based
Details: for CFTR R1162X ACTIVITY Fold 10 μM G-418: fold over 10 μM G-418, in combination with G418
Description: 16HBE human bronchial epithelial cells (stably over-expressing recombinant human CFTR carrying the premature stop codon (PTC) mutation G542X or R1162X along with a Nanoluc tag incorporated into the CFTR channel within extracellular loop 4 in G542X cell line or C-terminus end in the R1162X cell line were seeded at 0.01×10^6 cells/well and grown in Minimal Essential Medium (MEM) as monolayers in 384 well plates and incubated at 37° C. with 5% CO2. Media was changed every other day until day of experiment. Agents to be evaluated were made up in separate 384 well, polypropylene plates at a 2X the final desired test concentration. Test agent 10-point concentration response curves were constructed using the Labcyte Echo 555 acoustic dispenser. Test agents were typically tested at a max final test concentrations of 50 μM with sequential 2-fold lower concentrations below this in the absence or presence of a fixed 10 μM concentration of the aminoglycoside G418 made up in MEM growth media (reduced Serum Media+HEPES Buffer+2.4 g/L Sodium Bicarbonate+L-Glutamine containing CFTR corrector VX-809 (3 μM)). Treatment with 10 μM G418 alone produced approximately 10% of the response observed with a maximally effective concentration of G418 (typically 125-250 μM). Test agent effects in presence of 10 μM G418 were compared to control wells on the plate containing a maximally effective concentration of G418 (typically 125-250 μM) made up in the same media. 25 ul of test agents/control solutions were transferred from the compound plate to the cell plate, which already contained 25 ul/well of cell plating media, using an Integra Viaflo 384. Cell plates were incubated with the compounds for 48 hours, at which time they were processed using Nanoluc luminescence Kit (Promega Nano-Glo Live Cell Assay System) to measure CFTR-PTC mutant translation readthrough. Luminescence was measured as follows. Cell plates were removed from the incubator and allowed to equilibrate to room temperature for 20 minutes. Media was removed from all wells and the plates were blotted to remove excess remaining volume. Nano-Glo Live Cell Substrate was diluted 1:20 in the appropriate amount of Nano-Glo LCS Dilution Buffer to accommodate the number of cell plates being tested. The substrate/dilution buffer mix was then diluted 1:3 with MEM media to make the appropriate volume for the number of plates being tested. The substrate/dilution buffer/OptiMEM mix was added across the Nanoluc testing cell plates and the plates were read for luminescence signal immediately. Test agent effects on CFTR translation readthrough was determined by normalizing any observed increase in luminescence induced by 48 hours pretreatment with test compound to the magnitude of luminescence increase produced by pretreatment with a maximally effective concentration of the reference readthrough enhancing agent G418 (125-250 μM).

[1] = read-out: CFTR R1162X ACTIVITY EC50, in combination with G418, 16HBE cells
[2] = in combination with G418, 16HBE cells, read-out: CFTR R1162X ACTIVITY EC50

| Compound | CFTR R1162X ACTIVITY Fold 10 μM G-418 | pEC50 [1] | pEC50 [2] |
| --- | --- | --- | --- |
| OCc1ccn(-c2cnc(OCc3c(Cl)cccc3Cl)cn2)n1 [Example 339, (1-{5-[(2,6-dichlorophenyl)methoxy]pyrazin-2-yl}pyrazol-3-yl) methanol] | C′ (C′ = <5X) | 5.00 to 6.00 | – |
| OCc1cn(-c2ncc(OCc3c(C(F)(F)F)cccc3C(F)(F)F)cn2)cn1 | A′ (A′ = ≥10X) | – | > 6.00 |
| OCc1ncn(-c2ncc(OCc3c(C(F)(F)F)ccc(F)c3Cl)cn2)n1 | A′ (A′ = ≥10X) | – | 5.00 to 6.00 |
| O=C1N[C@H](CO)CN1c1ccc(OCc2c(Cl)cccc2C(F)(F)F)cn1 | C′ (C′ = <5X) | – | > 6.00 |
| Cc1cccc(C(F)(F)F)c1COc1cnc(-n2ncc(CO)n2)nc1 | C′ (C′ = <5X) | – | > 6.00 |
| O=C1CN(c2ccc(OCc3c(C(F)(F)F)cccc3C(F)(F)F)cn2)C(=O)N1 [1-(5-{[2,6-bis(trifluoromethyl)phenyl]methoxy}pyridin-2-yl)imidazolidine-2,4-dione] | A′ (A′ = ≥10X) | – | > 6.00 |
| O=C1OC(CO)CN1c1ncc(OCc2c(Cl)ccc(F)c2Cl)cn1 (stereo not drawn) | C′ (C′ = <5X) | – | 5.00 to 6.00 |
| O=C1CN(c2ccc(OCc3c(Cl)cccc3Cl)nn2)C(=O)N1 [Compound 351, 1-{6-[(2,6-dichlorophenyl)methoxy]pyridazin-3-yl}imidazolidine-2,4-dione] | C′ (C′ = <5X) | – | 5.00 to 6.00 |
| OCc1ncn(-c2ncc(CCc3c(Cl)cccc3Cl)cn2)n1 | C′ (C′ = <5X) | – | 5.00 to 6.00 |
| OCc1ccn(-c2ncc(OCc3c(Cl)cccc3C(F)(F)F)cn2)n1 | C′ (C′ = <5X) | – | > 6.00 |
| OCc1ncn(-c2ncc(OCc3c(Cl)ccc(F)c3C(F)(F)F)cn2)n1 | A′ (A′ = ≥10X) | – | > 6.00 |
| O=C1CN(c2cnc(OCc3c(Cl)cccc3C(F)(F)F)cn2)C(=O)N1 | C′ (C′ = <5X) | – | 5.00 to 6.00 |
| Cc1cccc(C(F)(F)F)c1COc1cnc(N2CCN(C)[C@@H](CN)C2)nc1 | C′ (C′ = <5X) | – | < 5.00 |
| CC(=O)N1CCN(c2ncc(OCc3c(Cl)cccc3C(F)(F)F)cn2)C[C@@H]1CN | B′ (B′ = ≥5X to <10X) | – | 5.00 to 6.00 |
| OCc1cn(-c2ncc(OCc3c(Cl)ccc(F)c3Cl)cn2)cn1 | C′ (C′ = <5X) | – | > 6.00 |
| O=C1CN(c2ccc(OCc3c(Cl)ccc(F)c3Cl)cn2)C(=O)N1 [Compound 341, 1-{5-[(2,6-dichloro-3-fluorophenyl)methoxy]pyridin-2-yl}imidazolidine-2,4-dione] | C′ (C′ = <5X) | – | > 6.00 |
| Cc1cccc(C(F)(F)F)c1COc1cnc(-n2ccc(C(N)=O)n2)nc1 | C′ (C′ = <5X) | – | > 6.00 |
| FC(F)(F)c1cccc(Cl)c1COc1cnc(N2CCn3c(nnc3C(F)(F)F)C2)nc1 | C′ (C′ = <5X) | – | 5.00 to 6.00 |
| O=C1CN(c2ccc(OCc3c(C(F)(F)F)ccc(F)c3Cl)cn2)C(=O)N1 | C′ (C′ = <5X) | – | > 6.00 |
| OCc1cn(-c2ncc(OCc3c(Cl)ccc(F)c3Cl)cn2)nn1 | C′ (C′ = <5X) | – | 5.00 to 6.00 |

| Compound | CFTR R1162X ACTIVITY Fold 10 μM G-418 | pEC50 [1] | pEC50 [2] |
| --- | --- | --- | --- |
| [2H]C([2H])(O)c1ncn(-c2ncc(OC([2H])([2H])c3c(Cl)cccc3C(F)(F)F)cn2)n1 | C′ (C′ = <5X) | – | 5.00 to 6.00 |
| Cc1cccc(C(F)(F)F)c1COc1cnc(N2C[C@@H](CO)NC2=O)nc1 [(4S)-4-(hydroxymethyl)-1-(5-{[2-methyl-6-(trifluoromethyl)phenyl]methoxy}pyrimidin-2-yl)imidazolidin-2-one] | C′ (C′ = <5X) | – | 5.00 to 6.00 |
| O=C1CN(c2ncc(OCc3c(Cl)cccc3C(F)(F)F)cn2)C1 [Compound 355, 1-(5-{[2-chloro-6-(trifluoromethyl)phenyl]methoxy}pyrimidin-2-yl)azetidin-3-one] | A′ (A′ = ≥10X) | – | > 6.00 |
| OCc1cncn1-c1ncc(OCc2c(Cl)cccc2Cl)cn1 [Example 362, (3-{5-[(2,6-dichlorophenyl)methoxy]pyrimidin-2-yl}imidazol-4-yl) methanol] | A′ (A′ = ≥10X) | 5.00 to 6.00 | – |
| O=C1N[C@H](CO)CN1c1ncc(OCc2c(C(F)(F)F)cccc2C(F)(F)F)cn1 [(4S)-1-(5-{[2,6-bis(trifluoromethyl)phenyl]methoxy}pyrimidin-2-yl)-4-(hydroxymethyl)imidazolidin-2-one] | C′ (C′ = <5X) | – | < 5.00 |
| OCc1cn(-c2ncc(OCc3c(C(F)(F)F)ccc(F)c3Cl)cn2)cn1 | C′ (C′ = <5X) | – | > 6.00 |
| OCc1cnn(-c2ncc(OCc3c(Cl)ccc(F)c3Cl)cn2)n1 | C′ (C′ = <5X) | – | > 6.00 |
| OCc1ncn(-c2ccc(OCc3c(Cl)cccc3Cl)cn2)n1 [Example 337, (1-{5-[(2,6-dichlorophenyl)methoxy]pyridin-2-yl}-1,2,4-triazol-3-yl) methanol] | C′ (C′ = <5X) | – | > 6.00 |
| CCc1cccc(C(F)(F)F)c1COc1cnc(N2C[C@@H](CO)NC2=O)nc1 | C′ (C′ = <5X) | – | 5.00 to 6.00 |
| [2H]C([2H])(O)c1ccn(-c2ncc(OC([2H])([2H])c3c(Cl)cccc3Cl)cn2)n1 | C′ (C′ = <5X) | – | 5.00 to 6.00 |
| N#CC1(O)CN(c2ncc(OCc3c(Cl)cccc3C(F)(F)F)cn2)C1 | A′ (A′ = ≥10X) | – | > 6.00 |
| OCc1cn(-c2ncc(OCc3c(Cl)cc(F)cc3Cl)cn2)cn1 | C′ (C′ = <5X) | – | 5.00 to 6.00 |
| O=C1CN(c2ccc(OCc3c(Cl)cc(F)cc3Cl)cn2)C(=O)N1 [Compound 349, 1-{5-[(2,6-dichloro-4-fluorophenyl)methoxy]pyridin-2-yl}imidazolidine-2,4-dione] | C′ (C′ = <5X) | – | 5.00 to 6.00 |
| O=C1CN(c2ccc(OCc3c(Cl)ccc(F)c3C(F)(F)F)cn2)C(=O)N1 | A′ (A′ = ≥10X) | – | > 6.00 |
| O=C1N[C@H](CO)CN1c1ccc(OCc2c(C(F)(F)F)cccc2C(F)(F)F)cn1 | C′ (C′ = <5X) | – | > 6.00 |
| O=C1CN(c2cnc(OCc3c(Cl)cccc3Cl)cn2)C(=O)N1 [Compound 336, 1-{5-[(2,6-dichlorophenyl)methoxy]pyrazin-2-yl}imidazolidine-2,4-dione] | C′ (C′ = <5X) | – | 5.00 to 6.00 |
| OCc1ncn(-c2ccc(OCc3c(C(F)(F)F)ccc(F)c3Cl)cn2)n1 | C′ (C′ = <5X) | – | > 6.00 |
| OCc1ccn(-c2ncc(OCc3c(C(F)(F)F)cccc3C(F)(F)F)cn2)n1 | A′ (A′ = ≥10X) | – | > 6.00 |
| O=C1OC(CO)CN1c1ccc(OCc2c(Cl)ccc(F)c2Cl)cn1 (stereo not drawn) [3-{5-[(2,6-dichloro-3-fluorophenyl)methoxy]pyridin-2-yl}-5-(hydroxymethyl)-1,3-oxazolidin-2-one] | C′ (C′ = <5X) | – | 5.00 to 6.00 |

From patent US20250228865A1, “COMPOUNDS FOR ENHANCING READ THROUGH OF GENES CONTAINING PREMATURE TERMINATION CODONS AND METHODS FOR MAKING AND USING THE SAME” (Sanofi US Services Inc., priority 2022, published 2025)
